Source: patent US9902728B2, “Pyrrolo and pyrazolopyrimidines as ubiquitin-specific protease 7 inhibitors” (Forma Therapeutics, Inc., priority 2014, dated 2018)

target: T1, USP7 (Homo sapiens, UniProt Q93009); experiment: USP7 Assay A (Ubitquin-Rhodamine 110 Assay); type: biochemical; conditions: USP7 activity in USP7 assay A and B (table does not say which assay per compound); read-out: USP7_IC50
T1 construct: USP7, construct USP7 (208-1102) 6*His, Viva Biotech; 6xHis (C); purchased Viva Biotech
T1 sequence (Q93009 208-1102): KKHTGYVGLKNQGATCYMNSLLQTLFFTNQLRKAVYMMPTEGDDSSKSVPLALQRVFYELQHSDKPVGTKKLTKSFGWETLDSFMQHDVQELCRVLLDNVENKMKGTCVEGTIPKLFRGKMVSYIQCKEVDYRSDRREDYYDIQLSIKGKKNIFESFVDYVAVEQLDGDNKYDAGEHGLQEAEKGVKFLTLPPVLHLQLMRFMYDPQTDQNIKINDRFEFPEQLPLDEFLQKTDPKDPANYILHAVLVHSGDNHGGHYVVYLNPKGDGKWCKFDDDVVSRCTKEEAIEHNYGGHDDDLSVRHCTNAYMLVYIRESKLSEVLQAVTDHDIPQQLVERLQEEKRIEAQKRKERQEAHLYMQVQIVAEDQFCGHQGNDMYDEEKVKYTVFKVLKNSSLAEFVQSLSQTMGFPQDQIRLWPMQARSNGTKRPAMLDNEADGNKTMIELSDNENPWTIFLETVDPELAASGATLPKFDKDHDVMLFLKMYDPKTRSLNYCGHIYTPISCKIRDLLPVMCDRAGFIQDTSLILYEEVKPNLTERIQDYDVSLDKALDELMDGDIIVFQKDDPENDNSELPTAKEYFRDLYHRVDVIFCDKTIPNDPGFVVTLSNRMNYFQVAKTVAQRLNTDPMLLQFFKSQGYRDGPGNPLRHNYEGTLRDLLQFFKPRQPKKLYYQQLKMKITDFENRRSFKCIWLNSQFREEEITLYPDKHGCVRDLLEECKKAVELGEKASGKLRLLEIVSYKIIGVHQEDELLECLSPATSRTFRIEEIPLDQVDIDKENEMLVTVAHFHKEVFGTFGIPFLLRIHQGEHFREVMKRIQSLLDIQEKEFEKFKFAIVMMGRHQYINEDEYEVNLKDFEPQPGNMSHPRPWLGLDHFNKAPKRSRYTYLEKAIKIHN
How it was run: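 Ub-Rh110 cleavage in 20 mM Tris-HCl pH 8.0 with 1 mM GSH, 0.03% BGG, 0.01% Triton X-100; compound preincubated with enzyme 30 min before substrate.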

SMILES | IC50 [nM]
O=C(c1ccc(F)cc1)N1CCC(O)(Cn2cnc3c(cnn3-c3ccc(N4CCCc5cnccc54)cc3)c2=O)CC1 [Compound I-1729] | 1000 to 10000
CC1(C(=O)N2CCC(O)(Cn3cnc4c(cnn4-c4cccc(N5CC(C6CCOCC6)C5)c4)c3=O)CC2)CC1 [Compound I-1732] | 200 to 1000
Cc1ncc(C(=O)N2CCC(O)(Cn3cnc4c(cnn4-c4ccc(-n5cc(Cl)cn5)cc4)c3=O)CC2)o1 [Compound I-1733] | < 200
O=C(c1ccc(F)cc1)N1CCC(O)(Cn2cnc3c(cnn3-c3ccc(-n4cc(CO)cn4)cc3)c2=O)CC1 [Compound I-1734] | 200 to 1000
O=C(c1ccc(N2CCN3CCCC3C2)cc1)N1CCC(O)(Cn2cnc3c(cnn3-c3ccc(F)cc3)c2=O)CC1 (centres unmarked) [Compound I-1735] | 1000 to 10000
O=C(C1CC1)N1CCC(O)(Cn2cnc3c(cnn3-c3ccc(-c4cnn5ccccc45)cc3)c2=O)CC1 [Compound I-1736] | 200 to 1000
O=C(C1CC1)N1CCC(O)(Cn2cnc3c(cnn3-c3ccc(-c4cncc(C(F)(F)F)c4)cc3)c2=O)CC1 [Compound I-1737] | 1000 to 10000
O=C(C1CC1)N1CCC(O)(Cn2cnc3c(cnn3-c3ccc(-c4cccc5oncc45)cc3)c2=O)CC1 [Compound I-1738] | 1000 to 10000
O=C(C1CC1)N1CCC(O)(Cn2cnc3c(cnn3-c3ccc(N4CCC5(CC4)CC(O)C5)cc3)c2=O)CC1 [Compound I-1739] | 1000 to 10000
O=C(c1ccc(F)cc1)N1CCC(O)(Cn2cnc3c(cnn3-c3ccc(N4CCC5(CC4)CC(CO)C5)cc3)c2=O)CC1 [Compound I-1740] | 200 to 1000
O=C(C1CC1)N1CCC(O)(Cn2cnc3c(cnn3-c3ccc(N4CCC5(CC4)CC(CO)C5)cc3)c2=O)CC1 [Compound I-1741] | 200 to 1000
O=C(c1ccc(F)cc1)N1CCC(O)(Cn2cnc3c(cnn3-c3ccc(-c4cnn(C5CCS(=O)(=O)CC5)c4)cc3)c2=O)CC1 [Compound I-1744] | 200 to 1000
O=C(c1ccc(F)cc1)N1CCC(O)(Cn2cnc3c(cnn3-c3ccc(-c4cnn(C5CS(=O)(=O)C5)c4)cc3)c2=O)CC1 [Compound I-1745] | 200 to 1000
O=C(c1ccc(F)cc1)N1CCC(O)(Cn2cnc3c(cnn3-c3ccc(-c4cnn(C5CC5)c4)cc3)c2=O)CC1 [Compound I-1746] | 200 to 1000
CC(=O)N1C[C@@H]2C[C@H]1CN2c1ccc(-n2ncc3c(=O)n(CC4(O)CCN(C(=O)C5(C)CC5)CC4)cnc32)cc1 [Compound I-1747] | 200 to 1000
CC(=O)N1CC2CC1CN2c1cccc(-n2ncc3c(=O)n(CC4(O)CCN(C(=O)C5(C)CC5)CC4)cnc32)c1 (centres unmarked) [Compound I-1748] | 200 to 1000
CC(=O)N1CC2CC1CN2c1ccc(-n2ncc3c(=O)n(CC4(O)CCN(C(=O)C5(C)CC5)CC4)cnc32)cc1 (centres unmarked) [Compound I-1749] | 200 to 1000
COCCN1CCN(c2cccc(-n3ncc4c(=O)n(CC5(O)CCN(C(=O)C6(C)CC6)CC5)cnc43)c2)CC1 [Compound I-1750] | 200 to 1000
CC1(C(=O)N2CCC(O)(Cn3cnc4c(cnn4-c4cccc(N5CCC(C#N)CC5)c4)c3=O)CC2)CC1 [Compound I-1751] | 200 to 1000
CC1(C(=O)N2CCC(O)(Cn3cnc4c(cnn4-c4ccc(N5CCC(C#N)CC5)cc4)c3=O)CC2)CC1 [Compound I-1752] | 200 to 1000
Cn1ncc2c(=O)n(CC3(O)CCN(C(=O)CC(C(F)F)n4ccc(F)n4)CC3)cnc21 (centres unmarked) [Compound I-1753] | 200 to 1000
CC1(C(=O)N2CCC(O)(Cn3cnc4c(cnn4-c4ccc(-n5ccc(F)n5)cc4)c3=O)CC2)CC1 [Compound I-1754] | 200 to 1000
O=C(C1CC1)N1CCC(O)(Cn2cnc3c(cnn3-c3ccc(N4CCC5(CC4)CC5)cc3)c2=O)CC1 [Compound I-1755] | 1000 to 10000
CC1(COc2ccc(-n3ncc4c(=O)n(CC5(O)CCN(C(=O)c6ccc(F)cc6)CC5)cnc43)cc2)COC1 [Compound I-1756] | 200 to 1000
Cn1ncc2ccc(-c3ccc(-n4ncc5c(=O)n(CC6(O)CCN(C(=O)C7CC7)CC6)cnc54)cc3)cc21 [Compound I-1764] | 1000 to 10000
O=C(C1CC1)N1CCC(O)(Cn2cnc3c(cnn3-c3ccc(-c4ccc5[nH]ccc5n4)cc3)c2=O)CC1 [Compound I-1768] | 200 to 1000

same assay, conditions: USP7 assay A and B (table does not say which assay per compound); read-out: USP7_IC50

SMILES | IC50 [nM]
CC1(C(=O)N2CCC(O)(Cn3cnc4c(cnn4-c4ccc(-c5cnn(C(F)F)c5)cc4)c3=O)CC2)CC1 [Compound I-1800] | < 200
CC1(C(=O)N2CCC(O)(Cn3cnc4c(cnn4-c4ccc(OC5CC(F)(F)C5)cc4)c3=O)CC2)CC1 [Compound I-1801] | < 200
O=C(C1CC1)N1CCC(O)(Cn2cnc3c(cnn3-c3cccc(-c4cnc(N5CCOCC5)nc4)c3)c2=O)CC1 [Compounds I-401] | 1000 to 10000
